Data taken from ChEMBL document CHEMBL1201862, “PubChem BioAssay data set” (2004).
The source made the active and inactive calls.

Experiments:
[1] = target: Glucose-6-phosphate 1-dehydrogenase (Homo sapiens, UniProt P11413); assay: human G6PD enzyme inhibitors, dose response, selectivity assay for P. falciparum G6PD inhibitor project, biochemical, fluorescence (AID 504792); type: functional
[2] = target: Genome polyprotein (dengue virus type 2, UniProt P29990); assay: Dengue-2 NS5 methyltransferase inhibitors, primary screen, biochemical, confirmation dose response (AID 588689); type: functional
[3] = target: T1, Probable nicotinate-nucleotide adenylyltransferase (Staphylococcus aureus (strain N315), UniProt P65502); type: functional, Staphylococcus aureus subsp. aureus N315;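 for IC50 Mean: confirmatory dose-response retesting of NadD inhibitor hits first found in an ultra-high-throughput screen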
[4] = target: T1, Probable nicotinate-nucleotide adenylyltransferase; type: functional, Staphylococcus aureus subsp. aureus N315; settings: read-out: IC50_Mean
[5] = target: Mu-type opioid receptor (Homo sapiens, UniProt P35372); type: functional, cell-based;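 note: U2OS cells with beta-arrestin recruitment to OPRM1 by beta-gal complementation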
[6] = target: 5-hydroxytryptamine receptor 2A (Mus musculus, UniProt P35363); type: functional, cell-based;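 note: CHO-K1 cells with tagged receptor and beta-arrestin; agonist potency measured as compound-induced activation of the receptor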
[7] = target: Beta-galactosidase (Escherichia coli, UniProt Q8VNN2); assay: Dose response counterscreen for EBI2 assay utilizing the enzyme, b-galactosidase.; type: functional
[8] = target: Melanocortin receptor 4 (Homo sapiens, UniProt P32245); assay: MC4R antagonist potency on cAMP, dose response, cell-based, TR-FRET, biased antagonists (AID 602298); type: functional;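 note: antagonist potency against agonist-stimulated cAMP production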
[9] = nonselective inhibitors of cellular cAMP signaling, dose response, counter-screen for MC4R biased antagonist project, cell-based, TR-FRET cAMP detection (AID 602305); type: functional;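 note: U2OS cells stimulated with forskolin near its EC80 as the cAMP inducer; potency is for inhibition of forskolin-stimulated cAMP signaling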
[10] = target: T2, Rac GTPase-activating protein 1 (Homo sapiens, UniProt Q9H0H5); assay: MgcRacGAP GTPase-activating activity inhibitors, confirmation, biochemical, ADP Hunter fluorescence, primary and confirmatory (AID 624330); type: functional
T2 sequence (Q9H0H5 whole entry): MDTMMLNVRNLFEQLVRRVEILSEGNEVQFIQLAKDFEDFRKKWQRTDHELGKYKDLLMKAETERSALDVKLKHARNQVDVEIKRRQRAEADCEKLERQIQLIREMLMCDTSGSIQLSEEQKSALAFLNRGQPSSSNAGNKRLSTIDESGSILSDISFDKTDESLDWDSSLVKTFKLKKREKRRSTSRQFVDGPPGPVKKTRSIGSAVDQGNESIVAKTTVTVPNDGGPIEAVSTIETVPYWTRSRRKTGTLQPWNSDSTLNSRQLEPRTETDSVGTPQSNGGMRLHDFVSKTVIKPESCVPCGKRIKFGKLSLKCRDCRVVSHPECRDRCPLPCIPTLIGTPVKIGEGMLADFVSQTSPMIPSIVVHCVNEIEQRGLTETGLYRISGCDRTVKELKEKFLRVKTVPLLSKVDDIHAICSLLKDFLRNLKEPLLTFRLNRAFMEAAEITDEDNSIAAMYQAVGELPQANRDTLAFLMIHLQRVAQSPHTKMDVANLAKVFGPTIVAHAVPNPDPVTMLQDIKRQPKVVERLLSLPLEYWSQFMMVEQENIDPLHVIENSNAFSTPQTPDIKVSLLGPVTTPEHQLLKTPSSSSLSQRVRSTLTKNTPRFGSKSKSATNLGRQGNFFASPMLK

[11] = target: Albumin (Bos taurus, UniProt P02769); assay: Counterscreen for inhibitors of T-cell receptor (TCR)-CD3 interaction: Fluorescence-based biochemical high throughput dose response assay to identify inhibitors of T-cell receptor (TCR)-CD3 interaction using a TAMRA-labeled BSA probe.; type: functional
[12] = target: Major prion protein (Homo sapiens, UniProt P04156); type: functional, cell-based
[13] = cells
[14] = NIH-3T3 fibroblast cytotoxicity, dose response, cytotoxicity control, cell-based, fluorescence, Alamar Blue, secondary assay (AID 2327); type: functional;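 note: NIH-3T3 mouse fibroblasts cultured with fluconazole at 8 µg/mL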
[15] = test system: Streptococcus sp. 'group A'; assay: growth inhibition of control SK(-) GAS strain, dose response, counter-screen for streptokinase expression inhibitor project, luminescence, kanamycin, BacTiterGlo, confirmation (AID 1900); type: functional, organism-based
[16] = C. albicans growth with fluconazole, confirmation, fluorescence, retest (AID 2467); type: functional, cell-based
[17] = target: T3, Serine/threonine-protein phosphatase (Candida dubliniensis (strain CD36 / CBS 7987 / NCPF 3949 / NRRLY-17841) (Yeast), UniProt B9W6M3); assay: calcineurin pathway inhibitors in yeast reporter, dose response, S. cerevisiae, CDRE-lacZ, luminescence, secondary (AID 2388); type: functional, cell-based;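 note: yeast reporter cells carrying a calcineurin-responsive lacZ construct stimulated with calcium chloride; luminescent beta-galactosidase reporter signal in whole cells rather than isolated phosphatase activity; potency for inhibition where a drop in reporter signal means calcineurin blockade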
T3 sequence (B9W6M3 whole entry): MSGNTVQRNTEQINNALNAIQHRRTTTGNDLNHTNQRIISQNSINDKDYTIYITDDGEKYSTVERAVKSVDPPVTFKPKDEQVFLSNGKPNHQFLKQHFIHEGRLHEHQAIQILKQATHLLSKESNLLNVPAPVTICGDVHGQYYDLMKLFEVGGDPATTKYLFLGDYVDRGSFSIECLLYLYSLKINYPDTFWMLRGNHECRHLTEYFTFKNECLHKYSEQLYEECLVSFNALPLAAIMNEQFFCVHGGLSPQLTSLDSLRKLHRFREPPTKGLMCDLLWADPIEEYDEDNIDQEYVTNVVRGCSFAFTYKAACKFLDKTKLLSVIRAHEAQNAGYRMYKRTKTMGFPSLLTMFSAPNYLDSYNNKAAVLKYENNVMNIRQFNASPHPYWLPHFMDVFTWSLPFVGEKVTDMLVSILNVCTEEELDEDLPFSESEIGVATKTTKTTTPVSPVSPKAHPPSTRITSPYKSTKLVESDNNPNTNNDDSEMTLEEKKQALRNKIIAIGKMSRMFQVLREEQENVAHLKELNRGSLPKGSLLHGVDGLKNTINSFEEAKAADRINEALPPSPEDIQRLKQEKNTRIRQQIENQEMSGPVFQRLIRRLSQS

[18] = test system: Streptococcus; assay: Group A Streptococcus viability loss, dose response, counter-screen for streptokinase expression inhibitor project, luminescence, BacTiterGlo (AID 1915); type: functional, organism-based;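 note: potency for reduction of bacterial viability or growth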
[19] = test system: Vero; assay: cells; type: functional; settings: Chlorocebus sabaeus
[20] = target: ATP-dependent molecular chaperone HSP82 (Candida albicans (strain WO-1) (Yeast), UniProt C4YTQ8); assay: loss of DOC-induced GRE-beta-galactosidase reporter signal, dose response, Hsp90 inhibitor project, S. cerevisiae, luminescence (AID 2400); type: functional, cell-based;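 note: beta-galactosidase luminescence from glucocorticoid response element reporter as proxy for Hsp90 function; inhibitor potency where signal loss means Hsp90 inhibition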

[O-][S+](c1ccccc1O)[S+]([O-])c1ccccc1O (stereo not drawn)
IC50 [1]: 54.1 µM (inactive)
IC50 [2]: 68 µM (active)
IC50 [3]: 3.33 µM (active)
IC50 [4]: 9.15 µM (active)

NC1CCc2cc(O)c(O)cc2C1 (stereo not drawn)
IC50 [1]: > 80 µM (inactive)
EC50 [5]: 92.5 µM (inactive)
EC50 [6]: 0.0131 µM (active)

CNCCc1c[nH]c2ccc(O)cc12
EC50 [5]: 92.4 µM (inactive)
EC50 [6]: 1.73 µM (active)

CN(c1ccc(C(=O)N2CCN(Cc3ccccc3)CC2)cc1)S(=O)(=O)c1ccc(Cl)cc1
EC50 [5]: 92.4 µM (inactive)
EC50 [6]: 2.82 µM (active)

COCCN1C(=O)c2cc(C(=O)Nc3ccc(C)c(F)c3)ccc2C1Nc1ccc(C)c(F)c1 (stereo not drawn)
IC50 [7]: > 80 µM (inactive)

COC(=O)C1CCN(CCCOc2ccc(CN3CCN(c4ccc([N+](=O)[O-])cc4)CC3)cc2)CC1
EC50 [5]: 92.6 µM (inactive)
EC50 [6]: 0.57 µM (active)

CC1(C)CC(=O)C(C(C2=C(O)CC(C)(C)CC2=O)c2cccs2)C(=O)C1 (stereo not drawn)
IC50 [2]: 46.3 µM (active)
IC50 [8]: 29.9 µM (inactive)
IC50 [9]: > 64.6 µM (inactive)
IC50 [10]: 73 µM (active)

COc1ccc(N2CCN(C(=O)c3ccc4[nH]c(C)c(C)c4c3)CC2)cc1
IC50 [7]: > 80 µM (inactive)

CC(=O)c1ccc(NC(=O)CN2C(=O)/C(=C/C(C)=C/c3ccccc3)SC2=S)cc1
IC50 [11]: > 94.1 µM (inactive)

C=CCOc1ccc(C(=O)/C=C2/C(=O)Nc3ccccc32)cc1
IC50 [7]: > 80 µM (inactive)

COc1ccc(N2CCN(C(=O)c3cc(=O)c4cc(C)ccc4o3)CC2)cc1
IC50 [7]: > 80 µM (inactive)

CCc1nc(SCC(=O)NNC(=O)c2ccc(OC)cc2)c2ccccc2n1
IC50 [12]: 1.72 µM (active)
IC50 [13]: > 138 µM (inactive)

Cc1cccc2sc(NNC(=O)c3cc(-c4cccs4)nc4ccccc34)nc12
EC50 [14]: 10.7 µM (inconclusive)
EC50 [15]: 0.889 µM (active)
EC50 [16]: 0.507 µM (active)
EC50 [17]: > 180 µM (inactive)
EC50 [18]: 2.14 µM (active)
CC50 [19]: 11.5 µM (active)
EC50 [20]: 16.2 µM (active)
IC50 [3]: 13.3 µM (active)
IC50 [4]: 26.7 µM (active)
